This passage reports JAK2/JAK1 and IC50 results from patent publication US11103510B2, “JAK1 pathway inhibitors for the treatment of cytokine-related disorders” (Incyte Corporation, priority 2018, dated 2021).

The target of assay [1] is human JAK2 (a.a. 828-1132) (Homo sapiens (Human), UniProt O60674). Briefly: In vitro JAK kinase assay (HTRF), JAK2, for JAK2/JAK1 ratio. The format is biochemical. The following applies: IC50 ratio, 1 mM ATP. Background: Time-resolved FRET reads energy transfer from a long-lived donor to a nearby acceptor.
Method: (§1) The catalytic activity of JAK1, JAK2 or JAK3 was assayed by measuring the phosphorylation of a biotinylated peptide. The phosphorylated peptide was detected by homogenous time resolved fluorescence (HTRF). […] Reactions are carried out at room temperature for 1 hour and then stopped with 20 μL 45 mM EDTA, 300 nM SA-APC, 6 nM Eu-Py20 in assay buffer (Perkin Elmer, Boston, Mass.). Binding to the Europium labeled antibody takes place for 40 minutes and HTRF signal was measured on a Fusion plate reader (Perkin Elmer, Boston, Mass.).
Assay [2] deals with human JAK1 (a.a. 837-1142) (Homo sapiens, UniProt P23458). The assay is described as follows: In vitro JAK kinase assay (HTRF), JAK1. The following applies: 1 mM ATP. Format: biochemical.
Method: as §1

Chain of human JAK2 (a.a. 828-1132) (O60674 828-1132): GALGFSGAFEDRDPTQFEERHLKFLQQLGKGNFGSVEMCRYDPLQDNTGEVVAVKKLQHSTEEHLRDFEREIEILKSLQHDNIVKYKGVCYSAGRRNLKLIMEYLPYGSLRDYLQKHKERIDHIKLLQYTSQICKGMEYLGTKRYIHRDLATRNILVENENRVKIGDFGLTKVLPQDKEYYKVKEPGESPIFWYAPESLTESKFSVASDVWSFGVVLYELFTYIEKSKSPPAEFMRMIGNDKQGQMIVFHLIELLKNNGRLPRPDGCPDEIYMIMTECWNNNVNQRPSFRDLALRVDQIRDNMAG

On to `N#CCC(C1CCN(c2cccc(Cl)n2)C1)n1cc(-c2ncnc3[nH]ccc23)cn1` (single isomer, unassigned) [Compound 6, 3-[1-(6-chloropyridin-2-yl)pyrrolidin-3-yl]-3-[4-(7H-pyrrolo[2,3-d]pyrimidin-4-yl)-1H-pyrazol-1-yl]propanenitrile], for which the JAK2/JAK1 in assay [1] is on record as more than 10. In addition, the half-maximal inhibitory concentration (IC50) (commonly the midpoint of a concentration-inhibition curve) in assay [2] was less than 10 nM.

With `N#CCC1(n2cc(-c3ncnc4[nH]ccc34)cn2)CN(C2CCN(C(=O)Nc3ccc(F)cc3C(F)(F)F)CC2)C1` [Compound 2, 4-{3-(Cyanomethyl)-3-[4-(7H-pyrrolo[2,3-d]pyrimidin-4-yl)-1H-pyrazol-1-yl]azetidin-1-yl}-N-[4-fluoro-2-(trifluoromethyl)phenyl]piperidine-1-carboxamide], the JAK2/JAK1 in assay [1] is more than 10. In assay [2], this compound gave an IC50 of less than 10 nM.

Regarding `N#CCC1(n2cc(-c3ncnc4[nH]ccc34)cn2)CN(C2CCN(C(=O)c3ccnc(C(F)(F)F)n3)CC2)C1` [Compound 3, [3-[4-(7H-pyrrolo[2,3-d]pyrimidin-4-yl)-1H-pyrazol-1-yl]-1-(1-{[2-(trifluoromethyl)pyrimidin-4-yl]carbonyl}piperidin-4-yl)azetidin-3-yl]acetonitrile], in assay [1], the JAK2/JAK1 is given as more than 10. In assay [2], this compound came in with a 50% inhibitory concentration (IC50) of less than 10 nM.

Take `C[C@@H](O)c1nc2cnc3ccsc3c2n1[C@H]1CC[C@H](CC#N)OC1` [Compound 5, ((2R,5S)-5-{2-[(1R)-1-hydroxyethyl]-1H-imidazo[4,5-d]thieno[3,2-b]pyridin-1-yl}tetrahydro-2H-pyran-2-yl)acetonitrile]: the JAK2/JAK1 in assay [1] is given as more than 10. In assay [2], this compound showed a concentration for half-maximal inhibition (IC50) of less than 100 nM.

Consider `N#CCC(C1CCN(c2nc3cccnc3o2)C1)n1cc(-c2ncnc3[nH]ccc23)cn1` (stereo not drawn) [Compound 7, 3-(1-[1,3]oxazolo[5,4-b]pyridin-2-ylpyrrolidin-3-yl)-3-[4-(7H-pyrrolo[2,3-d]pyrimidin-4-yl)-1H-pyrazol-1-yl]propanenitrile], for which the JAK2/JAK1 in assay [1] was more than 10. In addition, the half-maximal inhibitory concentration (IC50) in assay [2] is less than 10 nM.

Turning to `N#CCC(CN1CCN(C(=O)c2ccc(C#N)cc2F)CC1)n1cc(-c2ncnc3[nH]ccc23)cn1` (stereo not drawn) [Compound 8, 4-[(4-{3-cyano-2-[4-(7H-pyrrolo[2,3-d]pyrimidin-4-yl)-1H-pyrazol-1-yl]propyl}piperazin-1-yl)carbonyl]-3-fluorobenzonitrile], in assay [1], the JAK2/JAK1 was more than 10. The same compound yielded an IC50 in assay [2] of less than 10 nM.

For `N#CCC(CN1CCN(C(=O)c2ccc(C#N)cc2F)CC1)n1ccc(-c2ncnc3[nH]ccc23)c1` (stereo not drawn) [Compound 9, 4-[(4-{3-cyano-2-[3-(7H-pyrrolo[2,3-d]pyrimidin-4-yl)-1H-pyrrol-1-yl]propyl}piperazin-1-yl)carbonyl]-3-fluorobenzonitrile], the JAK2/JAK1 in assay [1] was more than 10. The compound also returned an IC50 in assay [2] of less than 10 nM.

As for `N#CC[C@]1(n2cc(-c3ncnc4[nH]ccc34)cn2)C[C@H](N2CCN(C(=O)c3ccnc(C(F)(F)F)n3)CC2)C1` [Compound 10, [trans-1-[4-(7H-pyrrolo[2,3-d]pyrimidin-4-yl)-1H-pyrazol-1-yl]-3-(4-{[2-(trifluoromethyl)pyrimidin-4-yl]carbonyl}piperazin-1-yl)cyclobutyl]acetonitrile], the JAK2/JAK1 in assay [1] is given as more than 10. In assay [2], this compound had a half-inhibitory concentration (IC50) of less than 10 nM.

For the compound `N#CC[C@]1(n2cc(-c3ncnc4[nH]ccc34)cn2)C[C@H](N2CCC(Oc3cc(CN4CC(O)C4)cc(C(F)(F)F)n3)CC2)C1` [Compound 11, {trans-3-(4-{[4-[(3-hydroxyazetidin-1-yl)methyl]-6-(trifluoromethyl)pyridin-2-yl]oxy}piperidin-1-yl)-1-[4-(7H-pyrrolo[2,3-d]pyrimidin-4-yl)-1H-pyrazol-1-yl]cyclobutyl}acetonitrile], the JAK2/JAK1 in assay [1] is more than 10. The compound further registered a 50% inhibitory concentration (IC50) in assay [2] of less than 10 nM.

For `N#CC[C@]1(n2cc(-c3ncnc4[nH]ccc34)cn2)C[C@H](N2CCC(Oc3cc(CN4CCC[C@H]4CO)cc(C(F)(F)F)n3)CC2)C1` [Compound 12, {trans-3-(4-{[4-{[(2S)-2-(hydroxymethyl)pyrrolidin-1-yl]methyl}-6-(trifluoromethyl)pyridin-2-yl]oxy}piperidin-1-yl)-1-[4-(7H-pyrrolo[2,3-d]pyrimidin-4-yl)-1H-pyrazol-1-yl]cyclobutyl}acetonitrile], the JAK2/JAK1 in assay [1] is more than 10. Moreover, the IC50 in assay [2] was less than 10 nM.

For `N#CC[C@]1(n2cc(-c3ncnc4[nH]ccc34)cn2)C[C@H](N2CCC(Oc3cc(CN4CCC[C@@H]4CO)cc(C(F)(F)F)n3)CC2)C1` [Compound 13, {trans-3-(4-{[4-{[(2R)-2-(hydroxymethyl)pyrrolidin-1-yl]methyl}-6-(trifluoromethyl)pyridin-2-yl]oxy}piperidin-1-yl)-1-[4-(7H-pyrrolo[2,3-d]pyrimidin-4-yl)-1H-pyrazol-1-yl]cyclobutyl}acetonitrile], the JAK2/JAK1 in assay [1] is given as more than 10. In addition, the half-inhibitory concentration (IC50) in assay [2] is less than 10 nM.

For `C[C@H](NC(=O)c1cc(F)c(N2CC(CC#N)(n3cc(-c4ncnc5[nH]ccc45)cn3)C2)cc1F)C(F)(F)F` [Compound 16, 4-{3-(cyanomethyl)-3-[4-(7H-pyrrolo[2,3-d]pyrimidin-4-yl)-1H-pyrazol-1-yl]azetidin-1-yl}-2,5-difluoro-N-[(1S)-2,2,2-trifluoro-1-methylethyl]benzamide], the JAK2/JAK1 in assay [1] is reported as more than 10. This compound registered an IC50 in assay [2] of less than 10 nM.

Consider `N#CCC1(n2cc(-c3ncnc4[nH]ccc34)cn2)CN([C@H]2CC[C@@H](Oc3cc(CCO)nc(C(F)(F)F)n3)CC2)C1` [Compound 18, {1-(cis-4-{[6-(2-hydroxyethyl)-2-(trifluoromethyl)pyrimidin-4-yl]oxy}cyclohexyl)-3-[4-(7H-pyrrolo[2,3-d]pyrimidin-4-yl)-1H-pyrazol-1-yl]azetidin-3-yl}acetonitrile], for which the JAK2/JAK1 in assay [1] is on record as more than 10. The compound also yielded an IC50 in assay [2] of less than 10 nM.

In the case of `CCNCc1cc(O[C@H]2CC[C@@H](N3CC(CC#N)(n4cc(-c5ncnc6[nH]ccc56)cn4)C3)CC2)nc(C(F)(F)F)c1` [Compound 19, {1-(cis-4-{[4-[(ethylamino)methyl]-6-(trifluoromethyl)pyridin-2-yl]oxy}cyclohexyl)-3-[4-(7H-pyrrolo[2,3-d]pyrimidin-4-yl)-1H-pyrazol-1-yl]azetidin-3-yl}acetonitrile], in assay [1], the JAK2/JAK1 is given as more than 10. Further, the IC50 in assay [2] is less than 10 nM.

On to `CC(C)(O)c1cc(O[C@H]2CC[C@@H](N3CC(CC#N)(n4cc(-c5ncnc6[nH]ccc56)cn4)C3)CC2)nc(C(F)(F)F)c1` [Compound 20, {1-(cis-4-{[4-(1-hydroxy-1-methylethyl)-6-(trifluoromethyl)pyridin-2-yl]oxy}cyclohexyl)-3-[4-(7H-pyrrolo[2,3-d]pyrimidin-4-yl)-1H-pyrazol-1-yl]azetidin-3-yl}acetonitrile], for which the JAK2/JAK1 in assay [1] is more than 10. The same compound displayed an IC50 in assay [2] of less than 10 nM.

For `N#CCC1(n2cc(-c3ncnc4[nH]ccc34)cn2)CN([C@H]2CC[C@@H](Oc3cc(CN4CC[C@@H](O)C4)cc(C(F)(F)F)n3)CC2)C1` [Compound 21, {1-(cis-4-{[4-{[(3R)-3-hydroxypyrrolidin-1-yl]methyl}-6-(trifluoromethyl)pyridin-2-yl]oxy}cyclohexyl)-3-[4-(7H-pyrrolo[2,3-d]pyrimidin-4-yl)-1H-pyrazol-1-yl]azetidin-3-yl}acetonitrile], in assay [1], the JAK2/JAK1 is on record as more than 10. In assay [2], this compound came in with an IC50 of less than 10 nM.

Turning to `N#CCC1(n2cc(-c3ncnc4[nH]ccc34)cn2)CN([C@H]2CC[C@@H](Oc3cc(CN4CC[C@H](O)C4)cc(C(F)(F)F)n3)CC2)C1` [Compound 22, {1-(cis-4-{[4-{[(3S)-3-hydroxypyrrolidin-1-yl]methyl}-6-(trifluoromethyl)pyridin-2-yl]oxy}cyclohexyl)-3-[4-(7H-pyrrolo[2,3-d]pyrimidin-4-yl)-1H-pyrazol-1-yl]azetidin-3-yl}acetonitrile], in assay [1], the JAK2/JAK1 is reported as more than 10. In assay [2], this compound came in with an IC50 of less than 10 nM.

On to `C[C@@H](CO)NCc1cc(OC2CCN([C@H]3C[C@](CC#N)(n4cc(-c5ncnc6[nH]ccc56)cn4)C3)CC2)nc(C(F)(F)F)c1` [Compound 23, {trans-3-(4-{[4-({[(1S)-2-hydroxy-1-methylethyl]amino}methyl)-6-(trifluoromethyl)pyridin-2-yl]oxy}piperidin-1-yl)-1-[4-(7H-pyrrolo[2,3-d]pyrimidin-4-yl)-1H-pyrazol-1-yl]cyclobutyl}acetonitrile], for which, in assay [1], the JAK2/JAK1 is reported as more than 10. The same compound yielded an IC50 in assay [2] of less than 10 nM.

In the case of `C[C@@H](O)CNCc1cc(OC2CCN([C@H]3C[C@](CC#N)(n4cc(-c5ncnc6[nH]ccc56)cn4)C3)CC2)nc(C(F)(F)F)c1` [Compound 24, {trans-3-(4-{[4-({[(2R)-2-hydroxypropyl]amino}methyl)-6-(trifluoromethyl)pyridin-2-yl]oxy}piperidin-1-yl)-1-[4-(7H-pyrrolo[2,3-d]pyrimidin-4-yl)-1H-pyrazol-1-yl]cyclobutyl}acetonitrile], the JAK2/JAK1 in assay [1] is recorded as more than 10. The half-maximal inhibitory concentration (IC50) in assay [2] is less than 10 nM.

On to `C[C@H](O)CNCc1cc(OC2CCN([C@H]3C[C@](CC#N)(n4cc(-c5ncnc6[nH]ccc56)cn4)C3)CC2)nc(C(F)(F)F)c1` [Compound 25, {trans-3-(4-{[4-({[(2S)-2-hydroxypropyl]amino}methyl)-6-(trifluoromethyl)pyridin-2-yl]oxy}piperidin-1-yl)-1-[4-(7H-pyrrolo[2,3-d]pyrimidin-4-yl)-1H-pyrazol-1-yl]cyclobutyl}acetonitrile], for which, in assay [1], the JAK2/JAK1 is more than 10. The same compound returned an IC50 in assay [2] of less than 10 nM.

In the case of `N#CC[C@]1(n2cc(-c3ncnc4[nH]ccc34)cn2)C[C@H](N2CCC(Oc3cc(CCO)cc(C(F)(F)F)n3)CC2)C1` [Compound 26, {trans-3-(4-{[4-(2-hydroxyethyl)-6-(trifluoromethyl)pyridin-2-yl]oxy}piperidin-1-yl)-1-[4-(7H-pyrrolo[2,3-d]pyrimidin-4-yl)-1H-pyrazol-1-yl]cyclobutyl}acetonitrile], the JAK2/JAK1 in assay [1] is given as more than 10. In assay [2], the IC50 is less than 10 nM.
